The results in this text go back to patent US20240024266A1, “Therapeutic Agent or Prophylactic Agent for COVID-19” (priority 2020, published 2024).

Molecules are shown by their SMILES.

The inhibition is the share of the control response that was lost under treatment.

In the first assay the test system is SARS-CoV-2. The assay can be described thus: Confirmation test of suppressing effect against SARS-CoV-2 proliferation (nucleocapsid Western blotting, VeroE6/TMPRSS2 cells). It is filed as cell-based. The conditions noted are these: 20 μM Pin1 inhibitor, VeroE6/TMPRSS2 cells, MOI 10, cell lysate 8 hours after infection, nucleocapsid band area vs no inhibitor. On the technique in general: In western blotting, separated proteins are transferred to a membrane and probed.
As to `O=C(Nc1ccc(OCc2ccc3ccccc3c2)cc1C(=O)O)c1ccc2ccccc2c1` [H-371], the “Inhibition Rate” value amounted to 99%.
The same measure, in the same setting: as for `O=C(Nc1ccc(OCc2ccc3ccccc3c2)cc1C(=O)O)c1ccc2ccccc2c1` [H-487], the figure is 63%.

The assay is the same for the next values; noted with them: Severe acute respiratory syndrome coronavirus 2, VeroE6/TMPRSS2, 8 h, 20 μM Pin1 inhibitor, VeroE6/TMPRSS2 cells, MOI 10, cell lysate 8 hours after infection, nucleocapsid band area vs no inhibitor; read-out: Inhibition Rate.
Turning to `O=C(O[C@H](Cc1ccc2ccccc2c1)C(=O)O)c1ccc2ccccc2c1` [H-30], the inhibition at 20 µM stood at 99%.
`COc1ccc(-c2cc(C(=O)O[C@H](Cc3ccc4ccccc4c3)C(=O)O)c(C)o2)cc1` [H-32]: the inhibition at 20 µM is 86%.
Take `O=C(O[C@H](Cc1ccc2ccccc2c1)C(=O)O)c1ccc(-c2ccccc2)cc1` [H-33]: the inhibition at 20 µM was 100%.
Same read-out and setting: the same measure for `O=C(Nc1ccc(OCc2ccccc2)cc1C(=O)O)OCc1ccccc1` [H-78]: 96%.
`O=C(N[C@H](Cc1c[nH]c2ccccc12)C(=O)O)OCC1c2ccccc2-c2ccccc21` [H-95]: the inhibition at 20 µM is 95%.
On the same count and under the same terms, as for `O=C(CC1c2ccccc2-c2ccccc21)N[C@H](Cc1ccc2ccccc2c1)C(=O)O` [H-103], the figure is 100%; as for `O=C(N[C@H](Cc1ccc2ccccc2c1)C(=O)OCc1ccccc1)C1c2ccccc2-c2ccccc21` [H-105], 100%; as for `O=C(CC1c2ccccc2-c2ccccc21)O[C@H](Cc1ccc2ccccc2c1)C(=O)O` [H-106], 100%.
As to `O=C(O[C@H](Cc1ccc2ccccc2c1)C(=O)O)c1ccc(Oc2ccccc2)cc1` [H-123], the inhibition at 20 µM worked out at 99%.
On the same count and under the same terms, as for `O=C(O[C@H](Cc1ccc2ccccc2c1)C(=O)O)c1cccc(Oc2ccccc2)c1` [H-130], the figure is 100%; as for `O=C(O[C@H](Cc1ccc2ccccc2c1)C(=O)O)c1ccccc1Oc1ccccc1` [H-132], 99%; as for `O=C(O[C@H](Cc1ccc2ccccc2c1)C(=O)O)C(c1ccccc1)c1ccccc1` [H-134], 98%.
Same read-out and setting: as for `O=C(Cc1ccc2ccccc2c1)O[C@H](Cc1ccc2ccccc2c1)C(=O)O` [H-149], the figure is 99%; as for `O=C(Cc1cccc2ccccc12)O[C@H](Cc1ccc2ccccc2c1)C(=O)O` [H-151], 98%.
Still for that read-out and setting: as for `O=C(O)[C@@H](Cc1ccc2ccccc2c1)OC(=O)N1c2ccccc2Oc2ccccc21` [H-157], the figure is 100%.
`O=C(O)[C@@H](Cc1ccc2ccccc2c1)NC(=O)N1c2ccccc2Oc2ccccc21` [H-162]: the inhibition at 20 µM is 99%.
The same measure, in the same setting: as for `O=C(O)[C@@H](Cc1ccc2ccccc2c1)OC(=O)n1c2ccccc2c2ccccc21` [H-175], the figure is 100%; as for `O=C(COc1ccc2ccccc2c1)O[C@H](Cc1ccc2ccccc2c1)C(=O)O` [H-177], 99%; as for `O=C(COc1cccc2ccccc12)O[C@H](Cc1ccc2ccccc2c1)C(=O)O` [H-179], 97%.
Turning to `O=C(O)[C@@H](Cc1ccc2ccccc2c1)OCc1ccc2ccccc2c1` [H-181], the inhibition at 20 µM worked out at 99%.
On the same count and under the same terms, as for `COc1cc(OC)cc(C(=O)O[C@H](Cc2ccc3ccccc3c2)C(=O)O)c1` [H-198], the figure is 67%.
Still for that read-out and setting: as for `O=C(O[C@H](Cc1ccc2ccccc2c1)C(=O)O)c1cc(Cl)cc(Cl)c1` [H-200], the figure is 98%.
Same read-out and setting: as for `Cc1cc(C)cc(C(=O)O[C@H](Cc2ccc3ccccc3c2)C(=O)O)c1` [H-210], the figure is 99%; as for `CC(C)(C)OC(=O)N[C@@H](Cc1ccccc1)C(=O)O[C@H](Cc1ccc2ccccc2c1)C(=O)O` [H-248], 88%; as for `COc1ccc2c(c1)C(C(=O)O[C@H](Cc1ccc3ccccc3c1)C(=O)O)c1ccccc1-2` (stereo partly shown) [H-254], 94%.
For `O=C(O[C@H](Cc1ccc2ccccc2c1)C(=O)O)C1c2ccccc2-c2ccc(F)cc21` (stereo partly shown) [H-262], the inhibition at 20 µM was determined as 94%.
For the compound `O=C(O[C@H](Cc1ccc2ccccc2c1)C(=O)O)C1c2ccccc2-c2ccc(Cl)cc21` (stereo partly shown) [H-263], the inhibition at 20 µM came to 54%.
Same read-out and setting: the same measure for `O=C(O[C@H](Cc1ccc2ccccc2c1)C(=O)O)c1ccc(Cl)c(Cl)c1` [H-269]: 98%; for `O=C(O)[C@@H](Cc1ccc(OCc2ccccc2)cc1)NC(=O)N1c2ccccc2Oc2ccccc21` [H-336]: 98%; for `O=C(O)[C@@H](Cc1ccc(OCc2ccccc2)cc1)NC(=O)n1c2ccccc2c2ccccc21` [H-337]: 100%.
`O=C(O)c1cc(OCc2ccccc2)ccc1NS(=O)(=O)c1ccc2ccccc2c1` [H-338]: the inhibition at 20 µM was determined as 99%.
Same read-out and setting: the same measure for `O=C(Nc1ccc(OCc2ccccc2)cc1C(=O)O)c1ccc2ccccc2n1` [H-339]: 76%; for `O=C(O)[C@H](NC(=O)n1c2ccccc2c2ccccc21)c1ccccc1` [H-348]: 81%.
Same read-out and setting: as for `O=C(COc1ccc2ccccc2c1)Nc1ccc(OCc2ccccc2)cc1C(=O)O` [H-362], the figure is 99%; as for `O=C(Nc1ccc(OCc2ccccc2)cc1C(=O)O)c1cccc(Oc2ccccc2)c1` [H-363], 99%; as for `O=C(O)c1cc(OCc2ccccc2)ccc1NC(=O)c1cccc2ccccc12` [H-370], 98%.
Turning to `COC(=O)[C@@H](Cc1ccc2ccccc2c1)NC(=O)n1c2ccccc2c2ccccc21` [H-393], the inhibition at 20 µM was determined as 80%.
The same measure, in the same setting: as for `O=C(Nc1ccc(OCc2ccccc2)cc1C(=O)O)c1ccc2ccccc2c1` [H-429], the figure is 99%.
The same measure, in the same setting: the same measure for `O=C(O[C@H](Cc1cccc2ccccc12)C(=O)O)c1ccc2ccccc2c1` [H-438]: 99%; for `O=C(O)c1cc(OCc2ccc3ccccc3c2)c(C(=O)O)cc1OCc1ccc2ccccc2c1` [H-444]: 55%; for `O=C(Nc1ccc(OCc2ccc3ccccc3c2)c(C(=O)O)c1)c1ccc2ccccc2c1` [H-448]: 100%.
With `O=C(O[C@H](Cc1ccc2ccccc2c1)C(=O)O)c1cccc2ccccc12` [H-452], the inhibition at 20 µM amounted to 52%.
On the same count and under the same terms, the same measure for `O=C(O)[C@@H](Cc1ccc2ccccc2c1)OCc1ccccc1Oc1ccccc1` [H-464]: 100%; for `O=C(O)c1cc(OCc2ccc3ccccc3c2)ccc1OCc1ccc2ccccc2c1` [H-488]: 100%.
On the same count and under the same terms, as for `O=C(O)c1ccc(OCc2ccc3ccccc3c2)cc1OCc1ccc2ccccc2c1` [H-489], the figure is 99%.
The same measure, in the same setting: as for `O=C(O)c1cc(OCc2ccc3ccccc3c2)cc(OCc2ccc3ccccc3c2)c1` [H-491], the figure is 91%; as for `O=C(O)CCC(Cc1ccc2ccccc2c1)OC(=O)c1ccc2ccccc2c1` (stereo not shown) [H-507], 99%; as for `O=C(O)[C@@H](Cc1cccc2ccccc12)NC(=O)n1c2ccccc2c2ccccc21` [H-509], 98%.
For `COc1ccc2cc(CC(OC(=O)c3ccc4ccccc4c3)C(=O)O)ccc2c1` (stereo not shown) [H-512], the inhibition at 20 µM came to 90%.
`O=C(O)CC(Cc1ccc2ccccc2c1)OC(=O)c1ccc2ccccc2c1` (stereo not shown) [H-514]: the inhibition at 20 µM came to 99%.
`O=C(Cn1c2ccccc2c2ccccc21)N[C@H](Cc1ccc2ccccc2c1)C(=O)O` [H-536]: the inhibition at 20 µM turned out to be 75%.
As for `O=C(O)c1cc(NC(=O)n2c3ccccc3c3ccccc32)cc(NC(=O)n2c3ccccc3c3ccccc32)c1` [H-596], the inhibition at 20 µM was 99%.
As to `O=C(O[C@H](Cc1ccc2ccccc2c1)C(=O)O)C1c2ccccc2-c2ccccc21` [H-614], the inhibition at 20 µM turned out to be 96%.
On the same count and under the same terms, as for `O=C(N[C@@H](CCCN1C(=O)c2ccccc2C1=O)C(=O)O)C1c2ccccc2-c2ccccc21` [H-619], the figure is 94%; as for `COC(=O)c1cc(NC(=O)c2ccc3ccccc3c2)c[n+](Cc2ccc3ccccc3c2)c1` [H-626], 88%; as for `O=C(C/C(=C\c1ccc2ccccc2c1)C(=O)O)NC1c2ccccc2-c2ccccc21` [H-644], 95%.
The same measure, in the same setting: as for `COC(=O)/C(=C/c1ccc2c(c1)OCO2)CC(=O)Nc1cccc2ccccc12` [H-669], the figure is 64%; as for `O=C(CC(Cc1ccc2c(c1)OCO2)C(=O)O)Nc1cccc2ccccc12` (stereo not shown) [H-674], 50%; as for `CC(C)(C)OC(=O)Nc1cc(NC(=O)n2c3ccccc3c3ccccc32)cc(C(=O)O)c1` [H-678], 87%.
For `COC(=O)c1cc(NC(=O)c2cccnc2)cc(NC(=O)n2c3ccccc3c3ccccc32)c1` [H-680], the inhibition at 20 µM was 53%.
Still for that read-out and setting: as for `COC(=O)c1cc(NC(=O)c2ccc3ccccc3n2)cc(NC(=O)n2c3ccccc3c3ccccc32)c1` [H-684], the figure is 66%; as for `COC(=O)c1cc(NC(=O)c2cnc3ccccc3n2)cc(NC(=O)n2c3ccccc3c3ccccc32)c1` [H-685], 58%; as for `O=C(O)c1cc(NC(=O)c2cnc3ccccc3n2)cc(NC(=O)n2c3ccccc3c3ccccc32)c1` [H-691], 52%.
As for `O=C(O)c1cc(NC(=O)C2COc3ccccc3O2)cc(NC(=O)n2c3ccccc3c3ccccc32)c1` (stereo not shown) [H-693], the inhibition at 20 µM stood at 77%.
Same read-out and setting: the same measure for `COC(=O)c1cc(NC(C)=O)cc(NC(=O)n2c3ccccc3c3ccccc32)c1` [H-696-2]: 98%.
Regarding `COC(=O)[C@H](CCCNC(=O)c1cccnc1)NC(=O)n1c2ccccc2c2ccccc21` [H-707], the inhibition at 20 µM amounted to 55%.
Still for that read-out and setting: the same measure for `O=C(NCCC[C@H](NC(=O)n1c2ccccc2c2ccccc21)C(=O)O)c1cccnc1` [H-708]: 62%; for `O=C(NCCC[C@H](NC(=O)C1c2ccccc2-c2ccccc21)C(=O)O)c1cccnc1` [H-715]: 63%; for `O=C(NCCC[C@H](NC(=O)n1c2ccccc2c2ccccc21)C(=O)O)c1ccc2ccccc2c1` [H-717]: 87%.
Still for that read-out and setting: as for `COC(=O)c1cc(N)cc(NC(=O)N(c2ccccc2)c2ccccc2)c1` [H-725-2], the figure is 81%.

The same assay, now with this note: Severe acute respiratory syndrome coronavirus 2, VeroE6/TMPRSS2, 8 h, read-out: Inhibition Rate.
As to `COP(=O)(OC)OCC(COc1cccc2ccccc12)OCc1ccc2ccccc2c1` (stereo not shown) [H-546], the inhibition at 20 µM is 83%.
